Laboratory results taken from US20260085076A1, “CRYSTAL FORM OF AROMATIC HETEROCYCLIC COMPOUND, COMPOSITION THEREOF, PRODUCTION METHOD THEREOF AND USES THEREOF” (Hangzhou Yuhong Pharmaceutical Technology Co., Ltd., priority 2023, published 2026).
pIC50: −log10 of the molar value. Converted amounts (≈) assume the structure as drawn. “Also recorded” adds a separate entry of the source. Blank lines part the entries; values can stand above or below the compound they belong to.

Tests used:
[1] = tested on: p-STAT5 under IL-15 stimulation in PBMC (JAK-STAT pathway); assay: p-STAT5 ELISA in IL-15 stimulated hPBMC cells; assay type: cell-based, human; settings: 45 min compound, 30 min IL-15, ELISA
Experimental: Based on the mechanism of JAK-STAT pathway, the effect of the compounds on the JAK-STAT pathway were evaluated by using cytokine IL-15 to stimulate hPBMC cells, and using the downstream STAT5 phosphorylation level as the detection index.
1. PBMC cell counting plate: 90 μL PBMC was seeded in a 96-well plate (PBMC cell density 80,000/well).
2. Treatment with test compounds: After cells being seeded, drug treatment was carried out immediately. The drugs to be tested at 5 μL/well (final concentrations 1, 0.5, 0.1, 0.05, 0.01, and 0.005 μM) were incubated at 37° C. for 45 min.
3. Cytokine IL-15 stimulation: The cells were stimulated by 5 μL IL-15, and incubated at 37° C. for 30 min.
4. Protein sample collection: The cells were collected in a centrifuge tube and centrifuged for 5 minutes. The supernatant was discarded and cells were lysed with 1× Cell Extraction Buffer PTR.
5. p-STAT5 detection: Perform detection according to the requirements of the ELISA kit.
Experimental results: IC50 values of compounds on p-STAT5 under IL-15 stimulation in PBMC

[2] = tested on: collagen-induced arthritis model in mice; assay: Collagen-induced arthritis model in mice (mCIA); assay type: in vivo, DBA/1J mice; settings: 50 mg/kg once a day, FIG. 77
Experimental: 1. Construction of collagen-induced arthritis model in mice (mCIA) Experimental purpose: To test the immunosuppressive activity of YZ001052 in the mCIA model. PF-06651600 was used as a positive control compound.
Complete and incomplete Freund's adjuvants with chicken type II collagen solution were mixed in equal proportions to form emulsions. Except for the blank control group, a mixture of complete Freund's adjuvant and chicken type II collagen solution was injected subcutaneously into the base of the tail and thigh of mice on Day 0. Each mouse was injected subcutaneously with 100 μL at the base of the tail, and injected 50 μL subcutaneously at the base of both thighs (primary immunization). On day 21, mice were injected subcutaneously with 200 μL of a mixture of incomplete Freund's adjuvant and chicken type II collagen as a booster injection (second immunization). Arthritis was considered to occur if the clinical score of at least one limb was >2 points. Paw thickness measurement: Using a vernier caliper to measure the thickness of the left and right hind feet of the mouse and record it, which is the degree of paw swelling. The detection frequency was once every 3 days.

SRBC mouse model = assay: SRBC-induced delayed-type hypersensitivity (DTH) in mice; assay type: in vivo, Balb/c mice; settings: 100 mg/kg gavage once a day, day 0 to day 6, FIG. 76
Experimental: Drug formulation: The compound was added to 0.5% CMC-Na solution to formulate a drug suspension (dosage is 10 mg/mL).
Induction and administration of delayed-type hypersensitivity (DTH): 30 male Balb/c mice were weighed and randomly divided into 6 groups according to body weight, with 5 mice in each group. The experimental period lasted for 7 days. On day 0, mice were sensitized by subcutaneous injection of sheep red blood cells (SRBC). The mice were performed gavage administration at 100 mg/kg (once a day) from day 0 to day 6. On day 6, the mice were injected SRBC into the right hind foot pad for challenge. Measurements were taken on the 7th day of the experiment, and the experiment was concluded.
Pharmacodynamic detection indicators of disease models: the detection and observation indicators are the redness and swelling degree and thickness of the paw pads of SRBC-induced mice. The thickness of the right paw was measured on day 6 before the SRBC injection challenge as the baseline. The thickness of the right paw was measured again at the end of the experiment, the difference in paw thickness before and after the second injection was calculated.
Statistical analysis: The experimental data were expressed as mean±standard deviation (Mean±SD). All data were statistically analyzed using T-test, with P<0.05 considered statistically significant.

[3] = DVS and isotherm curves, moisture absorption; assay type: physicochemical
[4] = Crystal competition experiment in water; assay type: physicochemical; settings: mixture of forms I-IX suspended in water, room temperature, 4 and 7 days, XRD
[5] = Influencing factors test of crystal form (high temperature, high humidity); assay type: physicochemical
Experimental: (§1) Samples of crystal form I produced in Example 15 were taken, which were 15 samples of 50 mg each, and sealed with aluminum foil bags. The crystal stability of the above samples were studied under high temperature (60±2° C.), high humidity (RH90%±5%), long-term test (25° C.±2° C., RH 60%±5%) and accelerated test (40° C.±2° C., RH 75%±5%) conditions. […] The long-term and accelerated 3-month crystal form is stable.

[6] = Stability test of crystal form (long-term, accelerated); assay type: physicochemical
Experimental: as §1

[7] = Crystal competition experiment in anhydrous ethanol; assay type: physicochemical; settings: mixture of forms I-IX suspended in anhydrous ethanol, room temperature, 4 days, XRD
Experimental: 2 mg each of the aromatic heterocyclic compound of crystal form I, crystal form II, crystal form III, crystal form IV, crystal form V, crystal form VI, crystal form VII, crystal form VIII and crystal form IX was added to 3 ml of anhydrous ethanol to form a suspension.

[8] = Solubility at different pH values; assay type: physicochemical; settings: thermodynamic from solid
Experimental: Excess samples of crystal form I were respectively added to 10 mL of solutions with different pH value. After being shaken for 24 hours by a constant temperature shaker at 32° C. at 100 rpm, the saturated solutions (with undissolved solids at the bottom) were centrifuged and filtered, then determined linear solutions (formulated with reference substances) with different concentrations and saturated solutions with different pH values under the content item. The solubility of the samples at different pH values were calculated using the standard curve as follows, see FIG. 75 for details.

[9] = Hot stage XRPD, crystal transformation on heating; assay type: physicochemical

Structure (SMILES): C=CC(=O)N1C[C@H](Nc2ncnc3[nH]ccc23)CC[C@@H]1C [PF-06651600, reference compound]
pIC50 [1]: 7.07
paw swelling ([2]; CIA mice): improved to varying degrees
arthritis score ([2]; compared with the model group): significantly decreased

Structure (SMILES): C=C(F)C(=O)N1CCc2c(c(-c3ccnc4[nH]ccc34)nn2C)C1 [YZ001054]
immunosuppressive effect on SRBC-induced delayed-type hypersensitivity (right paw thickness) (SRBC mouse model): significant immunosuppressive effects

Structure (SMILES): C=CC(=O)N1CCc2[nH]nc(-c3ccnc4[nH]ccc34)c2C1 [YZ001065]
immunosuppressive effect on SRBC-induced delayed-type hypersensitivity (right paw thickness) (SRBC mouse model): significant immunosuppressive effects

Structure (SMILES): C=CC(=O)N1Cc2c(-c3ccnc4[nH]ccc34)nn(C(C)C)c2C[C@H]1C [YZ001085]
immunosuppressive effect on SRBC-induced delayed-type hypersensitivity (right paw thickness) (SRBC mouse model): significant immunosuppressive effects

moisture absorption rate [3]: about 2.4%
crystal stability in water [4]: good crystal stability in water
Crystal form test result ([5]; 0 days): form I
Crystal form test result ([5]; high humidity RH90% ± 5%, 5 days): form I
Crystal form test result ([5]; high humidity RH90% ± 5%, 15 days): stable; also recorded: form I
Crystal form test result ([5]; high temperature 60 ± 2° C., 5 days): form I
Crystal form test result ([5]; high temperature 60 ± 2° C., 15 days): stable; also recorded: form I
Crystal form test result ([6]; 0 days): form I
Crystal form test result ([6]; accelerated 40° C. ± 2° C., RH 75% ± 5%, 1 month): form I
Crystal form test result ([6]; accelerated 40° C. ± 2° C., RH 75% ± 5%, 3 month): stable; also recorded: form I
Crystal form test result ([6]; long-term 25° C. ± 2° C., RH 60% ± 5%, 1 month): form I
Crystal form test result ([6]; long-term 25° C. ± 2° C., RH 60% ± 5%, 3 month): stable; also recorded: form I
solubility at 24 h ([8]; aqueous solution of pH 1.0, simulated gastric fluid, pH 1.0, 32° C.): 14500 µg/mL (≈ 47300 µM)
solubility at 24 h ([8]; aqueous solution of pH 2.0, simulated gastric fluid, pH 2.0, 32° C.): 2740 µg/mL (≈ 8900 µM)
solubility at 24 h ([8]; aqueous solution of pH 3.8, aqueous buffer, pH 3.8, 32° C.): 118 µg/mL (≈ 385 µM)
solubility at 24 h ([8]; aqueous solution of pH 4.5, aqueous buffer, pH 4.5, 32° C.): 68.6 µg/mL (≈ 223 µM)
solubility at 24 h ([8]; aqueous solution of pH 6.8, aqueous buffer, pH 6.8, 32° C.): 58.9 µg/mL (≈ 192 µM)
solubility at 24 h ([8]; aqueous solution of pH 8.0, aqueous buffer, pH 8.0, 32° C.): 60.8 µg/mL (≈ 198 µM)
solubility at 24 h ([8]; water, 32° C.): 53.2 µg/mL (≈ 173 µM)
Structure (SMILES): C=CC(=O)N1CCc2c(c(-c3ccnc4[nH]ccc34)nn2C)C1 [crystal form I, 1-(1-methyl-3-(1H-pyrrolo[2,3-b]pyridin-4-yl)-1,4,6,7-tetrahydro-5H-pyrazolo[4,3-c]pyridin-5-yl)prop-2-en-1-one]
crystal stability in ethanol [7]: good crystal stability in the presence of ethanol

moisture absorption rate [3]: about 2.4%
Structure (SMILES): C=CC(=O)N1CCc2c(c(-c3ccnc4[nH]ccc34)nn2C)C1 [crystal form II, 1-(1-methyl-3-(1H-pyrrolo[2,3-b]pyridin-4-yl)-1,4,6,7-tetrahydro-5H-pyrazolo[4,3-c]pyridin-5-yl)prop-2-en-1-one]
crystal transformation in hot stage XRPD [9]: transformed into crystal form I at 150 °C

moisture absorption rate [3]: about 2.2%
crystal stability in water [4]: good crystal stability in water
crystal transformation in hot stage XRPD [9]: no crystal transformation at 140 °C
Structure (SMILES): C=CC(=O)N1CCc2c(c(-c3ccnc4[nH]ccc34)nn2C)C1 [crystal form III, 1-(1-methyl-3-(1H-pyrrolo[2,3-b]pyridin-4-yl)-1,4,6,7-tetrahydro-5H-pyrazolo[4,3-c]pyridin-5-yl)prop-2-en-1-one]

Structure (SMILES): C=CC(=O)N1CCc2c(c(-c3ccnc4[nH]ccc34)nn2C)C1 [crystal form IX, 1-(1-methyl-3-(1H-pyrrolo[2,3-b]pyridin-4-yl)-1,4,6,7-tetrahydro-5H-pyrazolo[4,3-c]pyridin-5-yl)prop-2-en-1-one]
crystal transformation in hot stage XRPD [9]: transformed into crystal form I at 155 °C

Structure (SMILES): C=CC(=O)N1CCc2c(c(-c3ccnc4[nH]ccc34)nn2C)C1 [crystal form VI, 1-(1-methyl-3-(1H-pyrrolo[2,3-b]pyridin-4-yl)-1,4,6,7-tetrahydro-5H-pyrazolo[4,3-c]pyridin-5-yl)prop-2-en-1-one]
crystal transformation in hot stage XRPD [9]: transformed into crystal form I at 150 °C

moisture absorption rate [3]: about 1.3%
crystal transformation in hot stage XRPD [9]: transformed to crystal form I at 150 °C
Structure (SMILES): C=CC(=O)N1CCc2c(c(-c3ccnc4[nH]ccc34)nn2C)C1 [crystal form VII, 1-(1-methyl-3-(1H-pyrrolo[2,3-b]pyridin-4-yl)-1,4,6,7-tetrahydro-5H-pyrazolo[4,3-c]pyridin-5-yl)prop-2-en-1-one]

moisture absorption rate [3]: about 1.3%
Structure (SMILES): C=CC(=O)N1CCc2c(c(-c3ccnc4[nH]ccc34)nn2C)C1 [crystal form VIII, 1-(1-methyl-3-(1H-pyrrolo[2,3-b]pyridin-4-yl)-1,4,6,7-tetrahydro-5H-pyrazolo[4,3-c]pyridin-5-yl)prop-2-en-1-one]
crystal transformation in hot stage XRPD [9]: most of the crystals were transformed into crystal form I at 150 °C
